Data set [1] deals with PDE4B1 (Homo sapiens (Human), UniProt Q07343). As to the kind of experiment: Effect of compounds on PDE4B1 activity (IMAP fluorescence polarization kit). Format: biochemical. The method, then:
The effect of compounds on PDE4B1 activity was detected using a fluorescence polarization kit (IMAP FP IPP Explorer KIT, Molecular Device, Cat #R8124). The IMAP Reaction Buffer containing 0.1% BSA (5×) in the kit was diluted into a 1-fold reaction buffer containing 1 mM DTT. 0.12 nM PDE4B1 (BPS, Cat #60041) was added to the 1-fold reaction buffer to form a 2-fold enzyme solution. 10 μL of the 2-fold enzyme solution was added to wells of a 384-well reaction plate. For the negative control well, 10 μL of the 1-fold reaction buffer was used instead of the enzyme solution. Centrifugation at 1000 rpm for 1 minute and incubation at room temperature for 15 minutes were carried out. 0.2 uM FAM-labeled cAMP (FAM-cAMP, Molecular Device, Cat #R7506) was added to the 1-fold reaction buffer to form a 2-fold substrate solution. 10 μL of the 2-fold substrate solution was added to each well of the 384-well reaction plate. Centrifugation at 1000 rpm for 1 minute was carried out. A reaction was carried out at room temperature for 20 minutes. IMAP Progressive Binding Buffer A (5×), IMAP Progressive Binding Buffer B (5×), and IMAP Progressive Binding Reagent (provided by IMAP FP IPP Explorer Kit) were prepared into a reaction stop solution according to the instructions for use. 60 μL of an […] reaction stop solution was added to each well of the 384-well reaction plate to stop the reaction, and the reaction product was centrifuged at 1000 rpm for 1 minute. Incubation at room temperature in the dark for 60 minutes was carried out. The mP values (Ex480/Em535 (s), Em535 (p)) were read by a microplate reader (Envision).
FP was usually represented by mP value. mP value for FP measurement=1000*(S−G*P)/(S+G*P) • S: fluorescence intensity in parallel direction • P: fluorescence intensity in perpendicular direction • G: G factor=1
[formula] • mP(sample): mP of the test compound in a reaction well • mP(negative control): mP in the negative control well • mP(positive control): mP in the positive control well
According to the calculated inhibition rate at each concentration, the IC50 value of each compound was calculated by XLFit excel add-in version 5.4.0.8 software.

The target of data set [2] is PDE4D2 (Homo sapiens (Human), UniProt Q08499). As to the kind of experiment: Effect of compounds on PDE4D2 activity (fluorescence polarization kit). The class given is biochemical. (Fluorescence polarisation rises when a labelled molecule tumbles more slowly, as on binding a larger partner.)
The target in data set [3] is PDE4B2 (Homo sapiens (Human), UniProt Q07343). Put plainly: Effect of compounds on PDE4B2 activity (fluorescence polarization kit).
The subject of data set [4] is human peripheral blood mononuclear cells (TNF-α release). As to the kind of experiment: Inhibition of LPS-induced TNF-α release from human peripheral blood mononuclear cells in vitro. Format: cell-based. The note with it: 4 h; for IC50: read-out: Re IC50.
Data set [5] can be described thus: Pharmacokinetic test in rats. The note with it: male, SD. Format: in vivo. The procedure: 7.1 Experimental animals: Male SD rats, about 220 g, 6-8 weeks old, 6 rats/compound, purchased from Chengdu Ddossy Experimental Animals Co., Ltd.
7.2 Experiment design: On the day of the experiment, 6 SD rats were randomly grouped according to their body weights. The animals were fasted with water available for 12 to 14 h one day before the administration and were fed 4 h after the administration.

As a reminder, the IC50 is the concentration that inhibits the measured activity by half. As a reminder, the AUC(0-t) is exposure summed from dosing to a finite time, without extrapolation to infinity. A low value points to less exposure. The term clearance denotes a measure of how efficiently the substance is removed, as volume per time. Low readings indicate a low capacity for elimination, high ones a high capacity for elimination. Usually bioavailability stands for the share of a dose that reaches the circulation, judged against a reference dose that is usually intravenous.

The structures appear in SMILES notation. Read-outs that look alike come from different tables or passages of the source.

PDE4B1, sequence (Q07343 whole entry): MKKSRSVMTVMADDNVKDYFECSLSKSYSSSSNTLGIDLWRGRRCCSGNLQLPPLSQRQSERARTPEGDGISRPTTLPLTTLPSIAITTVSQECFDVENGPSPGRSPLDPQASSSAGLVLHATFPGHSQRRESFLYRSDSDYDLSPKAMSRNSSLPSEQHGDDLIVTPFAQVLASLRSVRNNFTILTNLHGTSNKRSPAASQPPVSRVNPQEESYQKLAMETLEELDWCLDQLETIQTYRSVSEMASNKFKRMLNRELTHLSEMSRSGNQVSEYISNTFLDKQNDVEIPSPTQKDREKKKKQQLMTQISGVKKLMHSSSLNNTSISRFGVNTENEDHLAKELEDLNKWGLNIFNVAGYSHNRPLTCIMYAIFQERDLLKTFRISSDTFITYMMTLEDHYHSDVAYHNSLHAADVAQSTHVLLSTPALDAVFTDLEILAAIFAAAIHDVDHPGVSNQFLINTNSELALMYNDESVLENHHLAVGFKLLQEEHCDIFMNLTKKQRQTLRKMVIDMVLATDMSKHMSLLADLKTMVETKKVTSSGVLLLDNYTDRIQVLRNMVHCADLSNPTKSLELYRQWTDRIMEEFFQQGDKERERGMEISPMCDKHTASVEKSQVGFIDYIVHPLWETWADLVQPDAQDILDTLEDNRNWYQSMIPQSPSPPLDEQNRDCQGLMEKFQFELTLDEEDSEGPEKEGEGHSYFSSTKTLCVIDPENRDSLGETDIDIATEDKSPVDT
PDE4D2, sequence (Q08499 303-809, change not shown): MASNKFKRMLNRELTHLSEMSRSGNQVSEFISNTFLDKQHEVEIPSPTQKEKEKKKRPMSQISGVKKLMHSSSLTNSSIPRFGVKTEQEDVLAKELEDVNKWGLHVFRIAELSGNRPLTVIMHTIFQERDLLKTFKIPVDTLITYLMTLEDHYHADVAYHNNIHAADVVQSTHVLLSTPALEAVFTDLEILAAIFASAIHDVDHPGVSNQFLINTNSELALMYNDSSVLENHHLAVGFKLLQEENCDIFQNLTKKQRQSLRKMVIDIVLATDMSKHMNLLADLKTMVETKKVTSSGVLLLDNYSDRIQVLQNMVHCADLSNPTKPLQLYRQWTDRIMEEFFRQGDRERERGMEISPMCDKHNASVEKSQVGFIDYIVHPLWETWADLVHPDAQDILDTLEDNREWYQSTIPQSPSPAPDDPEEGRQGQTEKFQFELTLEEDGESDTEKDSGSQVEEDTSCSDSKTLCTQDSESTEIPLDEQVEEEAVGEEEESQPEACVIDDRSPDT
PDE4B2, sequence (Q07343 other isoform, or with tags, fused parts or gaps): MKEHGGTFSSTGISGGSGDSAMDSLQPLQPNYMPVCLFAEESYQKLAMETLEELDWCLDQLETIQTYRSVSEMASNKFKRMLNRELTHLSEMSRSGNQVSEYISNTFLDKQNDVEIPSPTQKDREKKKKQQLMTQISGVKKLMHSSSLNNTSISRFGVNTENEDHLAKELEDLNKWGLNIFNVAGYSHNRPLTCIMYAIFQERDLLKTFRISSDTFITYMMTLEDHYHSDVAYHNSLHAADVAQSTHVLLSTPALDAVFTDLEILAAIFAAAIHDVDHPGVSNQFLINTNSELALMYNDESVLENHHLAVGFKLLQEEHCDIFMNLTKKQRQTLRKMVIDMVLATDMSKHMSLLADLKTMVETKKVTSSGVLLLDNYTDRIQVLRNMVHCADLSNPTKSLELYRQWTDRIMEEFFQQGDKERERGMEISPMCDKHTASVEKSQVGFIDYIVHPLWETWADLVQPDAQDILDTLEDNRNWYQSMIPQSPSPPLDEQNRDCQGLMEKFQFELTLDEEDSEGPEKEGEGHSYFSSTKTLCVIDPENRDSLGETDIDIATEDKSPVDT

As to `[O-][S+]1CCCc2nc(N3CCC(c4ncc(Cl)cn4)CC3)nc(NC3(CO)CCC3)c21` (stereo not drawn) [Compound 3], the IC50 in data set [1] is less than 10 nM; in data set [2], less than 10 nM; in data set [3] (read-out: PDE4B2 IC50) it was 10 to 50 nM.
Take `[O-][S@@+]1CCCc2nc(N3CC=C(c4ccc(Cl)cc4)CC3)nc(NC3(CO)CCC3)c21` [Compound 8-2]: the half-inhibitory concentration (IC50) in data set [1] and in data set [2] was less than 10 nM in each case.
With `[O-][S@@+]1CCCc2nc(N3CC=C(c4ncc(Cl)cn4)CC3)nc(NC3(CO)CCC3)c21` [Compound 9-2], the IC50 in data set [1] is less than 10 nM; in data set [2], less than 10 nM; in data set [4] (relative IC50, hPBMC, 100 ng/mL LPS) it was 10 to 50 nM. Also, the “Max inhibition (%)” value in data set [4] (hPBMC, 100 ng/mL LPS) is 69.47%.
In data set [1], `[O-][S@+]1CCCc2nc(N3CCC(c4ccc(Cl)cc4)CC3)nc(NC3(CO)CCC3)c21` [Compound 10-2] displayed an IC50 of 10 to 50 nM.
With `[O-][S@@+]1CCCc2nc(N3CCN(c4ccc(Cl)cc4)CC3)nc(NC3(CO)CCC3)c21` [Compound 11-1], the IC50 in data set [1] was less than 10 nM; in data set [2], 10 to 50 nM.
`CC(C)(COC(N)=O)Nc1nc(N2CC=C(c3ncc(C4CC4)cn3)CC2)nc2c1[S@+]([O-])CC2` [Compound 84]: the half-inhibitory concentration (IC50) in data set [2] was less than 10 nM; in data set [4] (Homo sapiens, PBMC), less than 10 nM; in data set [3] it was less than 10 nM. In addition, in data set [4] (Homo sapiens, PBMC, hPBMC, 100 ng/mL LPS, read-out: Max inhibition (%)), the Emax came to 68%. For the same molecule, the AUC(0-t) in data set [5] (iv, rat plasma, i.v. 2.5 mg/kg) worked out at 16500 ng·h/mL; in data set [5] (po, rat plasma, i.g. 10 mg/kg), 52200 ng·h/mL. This molecule also showed a clearance in data set [5] (iv, rat plasma, i.v. 2.5 mg/kg) of 2.54 ± 0.32 mL/min/kg. The Vd in data set [5] (iv, rat plasma, i.v. 2.5 mg/kg, read-out: Vdss) came out at 0.324 ± 0.012 L/kg. The molecule also registered a bioavailability in data set [5] (plasma, po, rat, i.g. 10 mg/kg) of 78.9 ± 32%.

Source of the values: patent publication US20250263426A1, “PDE4B INHIBITOR AND USE THEREOF” (Xizang Haisco Pharmaceutical Co., Ltd., priority 2022, published 2025).
